In patent publication US6737383B1, “Herbicidal oxadiazolidines” (priority 1999, dated 2004):

Assays:
wild oat = assay: Test B pre/postemergence wild oat; assay type: in vivo, Avena fatua; details: for Plant response rating, Wild oats: scale of 0 to 10 where 0 is no effect and 10 is complete control
Method in brief: (§1)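 Response is a visual 0-to-10 score relative to untreated plants, where 0 means no effect and 10 means complete control, taken twelve to sixteen days after application. Treatments went onto soil at planting and onto foliage of 1- to 4-leaf plants, using a surfactant-containing non-phytotoxic solvent.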

purple nutsedge = assay: Test B pre/postemergence purple nutsedge; assay type: in vivo, Cyperus rotundus; details: for Plant response rating, Nutsedge: scale of 0 to 10 where 0 is no effect and 10 is complete control
Method in brief: as §1

pigweed = assay: Test B pre/postemergence pigweed; assay type: in vivo, Amaranthus retroflexus; details: for Plant response rating, Redroot pigweed: scale of 0 to 10 where 0 is no effect and 10 is complete control
Method in brief: as §1

soybean = assay: Test B pre/postemergence soybean; assay type: in vivo, Glycine max; details: for Plant response rating, Soybean: scale of 0 to 10 where 0 is no effect and 10 is complete control
Method in brief: as §1

duck salad = assay: Test B flood test duck salad; assay type: in vivo, Heteranthera limosa
Method in brief: (§2)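 Each value is a visual injury score relative to controls, with 10 meaning complete control and 0 no effect. Evaluation took place twelve to sixteen days after the 2-leaf-stage plants were treated and kept in the greenhouse.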

rice = assay: Test B flood test rice; assay type: in vivo, Oryza sativa
Method in brief: as §2

surinam grass = assay: Test B pre/postemergence surinam grass; assay type: in vivo, Brachiaria decumbens
Method in brief: as §1

morningglory = assay: Test B pre/postemergence morningglory; assay type: in vivo, Ipomoea hederacea; details: for Plant response rating, Morningglory: scale of 0 to 10 where 0 is no effect and 10 is complete control
Method in brief: as §1

wheat = assay: Test B pre/postemergence wheat; assay type: in vivo, Triticum aestivum; details: for Plant response rating, Wheat: scale of 0 to 10 where 0 is no effect and 10 is complete control
Method in brief: as §1

giant foxtail = assay: Test B pre/postemergence giant foxtail; assay type: in vivo, Setaria faberii
Method in brief: as §1

smallflower flatsedge = assay: Test B flood test smallflower flatsedge; assay type: in vivo, Cyperus difformis
Method in brief: as §2

rape = assay: Test B pre/postemergence rape; assay type: in vivo, Brassica napus; details: for Plant response rating, Rape: scale of 0 to 10 where 0 is no effect and 10 is complete control
Method in brief: as §1

cocklebur = assay: Test B pre/postemergence cocklebur; assay type: in vivo, Xanthium strumarium
Method in brief: as §1

velvetleaf = assay: Test B pre/postemergence velvetleaf; assay type: in vivo, Abutilon theophrasti; details: for Plant response rating, Velvetleaf: scale of 0 to 10 where 0 is no effect and 10 is complete control
Method in brief: as §1

blackgrass = assay: Test B pre/postemergence blackgrass; assay type: in vivo, Alopecurus myosuroides
Method in brief: as §1

sugar beet = assay: Test B pre/postemergence sugar beet; assay type: in vivo, Beta vulgaris; details: for Plant response rating, Sugarbeets: scale of 0 to 10 where 0 is no effect and 10 is complete control
Method in brief: as §1

crabgrass = assay: Test B pre/postemergence crabgrass; assay type: in vivo, Digitaria sanguinalis
Method in brief: as §1

corn = assay: Test B pre/postemergence corn; assay type: in vivo, Zea mays
Method in brief: as §1

bamyardgrass = assay: Test B flood test barnyardgrass; assay type: in vivo, Echinochloa crus-galli
Method in brief: as §2

[1] = Postemergence, Rate 250 g/ha, scale 0 to 10
[2] = Preemergence, Rate 250 g/ha, scale 0 to 10, 0 is no effect, 10 is complete control
[3] = Preemergence, Rate 500 g/ha, scale 0 to 10, 0 is no effect, 10 is complete control
[4] = Rate 62 g/ha, Postemergence, scale 0 to 10 (0 no effect, 10 complete control)
[5] = Rate 125 g/ha, Postemergence, scale 0 to 10, 0 is no effect, 10 is complete control
[6] = Rate 62 g/ha, flood test species, Pre-emergence, visual evaluation after twelve to sixteen days
[7] = Rate 125 g/ha, under heading Pre-emergence, flood test species, visual evaluation after twelve to sixteen days
[8] = Rate 250 g/ha, Pre-emergence (flood test species), scale 0 to 10, 0 is no effect, 10 is complete control
[9] = Rate 500 g/ha, Pre-emergence, flood test species, scale 0 to 10 (0 no effect, 10 complete control)
[10] = Postemergence, Rate 500 g/ha, scale of 0 to 10 where 0 is no effect and 10 is complete control
[11] = Preemergence, Rate 62 g/ha, scale of 0 to 10 where 0 is no effect and 10 is complete control
[12] = Preemergence, Rate 125 g/ha, scale of 0 to 10 where 0 is no effect and 10 is complete control

COC(OC)C(C)n1c(=O)on(C(=O)N(c2ccc(F)cc2F)C(C)C)c1=O (stereo not shown) [Compound 472]
Wild oats plant response rating (wild oat; [1]): 0 | Plant response rating, Wild oats (wild oat; Preemergence, Rate 62 g/ha): 2 | Plant response rating, Wild oats (wild oat; Preemergence, Rate 125 g/ha): 5 | Wild oats plant response rating (wild oat; [2]): 8 | Wild oats plant response rating (wild oat; [3]): 10 | Wild oats plant response rating (wild oat; [4]): 0 | Wild oats plant response rating (wild oat; [5]): 0 | Nutsedge plant response rating (purple nutsedge; [1]): 0 | Plant response rating, Nutsedge (purple nutsedge; Preemergence, Rate 62 g/ha): 0 | Plant response rating, Nutsedge (purple nutsedge; Preemergence, Rate 125 g/ha): 0 | Nutsedge plant response rating (purple nutsedge; [2]): 0 | Nutsedge plant response rating (purple nutsedge; [3]): 10 | Nutsedge plant response rating (purple nutsedge; [4]): 0 | Nutsedge plant response rating (purple nutsedge; [5]): 0 | Redroot pigweed plant response rating (pigweed; [1]): 3 | Plant response rating, Redroot pigweed (pigweed; Preemergence, Rate 62 g/ha): 10 | Plant response rating, Redroot pigweed (pigweed; Preemergence, Rate 125 g/ha): 10 | Redroot pigweed plant response rating (pigweed; [2]): 10 | Redroot pigweed plant response rating (pigweed; [3]): 10 | Redroot pigweed plant response rating (pigweed; [4]): 0 | Redroot pigweed plant response rating (pigweed; [5]): 2 | Soybean plant response rating (soybean; [1]): 2 | Plant response rating, Soybean (soybean; Preemergence, Rate 62 g/ha): 0 | Plant response rating, Soybean (soybean; Preemergence, Rate 125 g/ha): 0 | Soybean plant response rating (soybean; [2]): 0 | Soybean plant response rating (soybean; [3]): 3 | Soybean plant response rating (soybean; [4]): 2 | Soybean plant response rating (soybean; [5]): 2 | Plant response rating, Ducksalad (0 to 10 scale, 0 is no effect, 10 is complete control) (duck salad; [6]): 0 | Ducksalad plant response rating (0 to 10 scale, 0 is no effect, 10 is complete control) (duck salad; [7]): 0 | Ducksalad plant response rating (duck salad; [8]): 0 | Ducksalad plant response rating (duck salad; [9]): 0 | Plant response rating, Rice (0 to 10 scale, 0 is no effect, 10 is complete control) (rice; [6]): 0 | Rice plant response rating (0 to 10 scale, 0 is no effect, 10 is complete control) (rice; [7]): 0 | Rice plant response rating (rice; [8]): 0 | Rice plant response rating (rice; [9]): 0 | B. signalgrass plant response rating (surinam grass; Postemergence, Rate 250 g/ha, scale 0 to 10, 0 no effect, 10 complete control): 2 | B. signalgrass plant response rating (surinam grass; [10]): 5 | Plant response rating, B. signalgrass (surinam grass; [11]): 3 | Plant response rating, B. signalgrass (surinam grass; [12]): 9 | B. signalgrass plant response rating (surinam grass; [2]): 9 | B. signalgrass plant response rating (surinam grass; [3]): 10 | B. signalgrass plant response rating (surinam grass; [4]): 0 | B. signalgrass plant response rating (surinam grass; [5]): 0 | Morningglory plant response rating (morningglory; [1]): 4 | Plant response rating, Morningglory (morningglory; Preemergence, Rate 62 g/ha): 0 | Plant response rating, Morningglory (morningglory; Preemergence, Rate 125 g/ha): 0 | Morningglory plant response rating (morningglory; [2]): 0 | Morningglory plant response rating (morningglory; [3]): 5 | Morningglory plant response rating (morningglory; [4]): 3 | Morningglory plant response rating (morningglory; [5]): 3 | Wheat plant response rating (wheat; [1]): 0 | Plant response rating, Wheat (wheat; Preemergence, Rate 62 g/ha): 0 | Plant response rating, Wheat (wheat; Preemergence, Rate 125 g/ha): 0 | Wheat plant response rating (wheat; [2]): 0 | Wheat plant response rating (wheat; [3]): 0 | Wheat plant response rating (wheat; [4]): 0 | Wheat plant response rating (wheat; [5]): 0 | Giant foxtail plant response rating (giant foxtail; [1]): 8 | Giant foxtail plant response rating (giant foxtail; [10]): 8 | Plant response rating, Giant foxtail (giant foxtail; [11]): 10 | Plant response rating, Giant foxtail (giant foxtail; [12]): 10 | Giant foxtail plant response rating (giant foxtail; [2]): 10 | Giant foxtail plant response rating (giant foxtail; [3]): 10 | Giant foxtail plant response rating (giant foxtail; [4]): 7 | Giant foxtail plant response rating (giant foxtail; [5]): 7 | Plant response rating, S. Flatsedge (0 to 10 scale, 0 is no effect, 10 is complete control) (smallflower flatsedge; [6]): 0 | S. Flatsedge plant response rating (0 to 10 scale, 0 is no effect, 10 is complete control) (smallflower flatsedge; [7]): 0 | S. Flatsedge plant response rating (smallflower flatsedge; [8]): 0 | S. Flatsedge plant response rating (smallflower flatsedge; [9]): 0 | Rape plant response rating (rape; [1]): 0 | Plant response rating, Rape (rape; Preemergence, Rate 62 g/ha): 0 | Plant response rating, Rape (rape; Preemergence, Rate 125 g/ha): 0 | Rape plant response rating (rape; [2]): 0 | Rape plant response rating (rape; [3]): 4 | Rape plant response rating (rape; [4]): 0 | Rape plant response rating (rape; [5]): 0 | Cocklebur plant response rating (cocklebur; [1]): 0 | Cocklebur plant response rating (cocklebur; [10]): 1 | Plant response rating, Cocklebur (cocklebur; [11]): 0 | Plant response rating, Cocklebur (cocklebur; [12]): 0 | Cocklebur plant response rating (cocklebur; [2]): 0 | Cocklebur plant response rating (cocklebur; [3]): 2 | Cocklebur plant response rating (cocklebur; [4]): 0 | Cocklebur plant response rating (cocklebur; [5]): 0 | Velvetleaf plant response rating (velvetleaf; [1]): 2 | Plant response rating, Velvetleaf (velvetleaf; Preemergence, Rate 62 g/ha): 1 | Plant response rating, Velvetleaf (velvetleaf; Preemergence, Rate 125 g/ha): 3 | Velvetleaf plant response rating (velvetleaf; [2]): 3 | Velvetleaf plant response rating (velvetleaf; [3]): 7 | Velvetleaf plant response rating (velvetleaf; [4]): 0 | Velvetleaf plant response rating (velvetleaf; [5]): 0 | Blackgrass plant response rating (blackgrass; [1]): 2 | Blackgrass plant response rating (blackgrass; [10]): 8 | Plant response rating, Blackgrass (blackgrass; [11]): 9 | Plant response rating, Blackgrass (blackgrass; [12]): 9 | Blackgrass plant response rating (blackgrass; [2]): 10 | Blackgrass plant response rating (blackgrass; [3]): 10 | Blackgrass plant response rating (blackgrass; [4]): 0 | Blackgrass plant response rating (blackgrass; [5]): 0 | Sugarbeets plant response rating (sugar beet; [1]): 0 | Plant response rating, Sugarbeets (sugar beet; Preemergence, Rate 62 g/ha): 1 | Plant response rating, Sugarbeets (sugar beet; Preemergence, Rate 125 g/ha): 2 | Sugarbeets plant response rating (sugar beet; [2]): 3 | Sugarbeets plant response rating (sugar beet; [3]): 6 | Sugarbeets plant response rating (sugar beet; [4]): 0 | Sugarbeets plant response rating (sugar beet; [5]): 0 | Crabgrass plant response rating (crabgrass; [1]): 8 | Crabgrass plant response rating (crabgrass; [10]): 8 | Plant response rating, Crabgrass (crabgrass; [11]): 9 | Plant response rating, Crabgrass (crabgrass; [12]): 9 | Crabgrass plant response rating (crabgrass; [2]): 10 | Crabgrass plant response rating (crabgrass; [3]): 10 | Crabgrass plant response rating (crabgrass; [4]): 7 | Crabgrass plant response rating (crabgrass; [5]): 7 | Corn plant response rating (corn; [1]): 0 | Corn plant response rating (corn; [10]): 3 | Plant response rating, Corn (corn; [11]): 0 | Plant response rating, Corn (corn; [12]): 0 | Corn plant response rating (corn; [2]): 2 | Corn plant response rating (corn; [3]): 7 | Corn plant response rating (corn; [4]): 0 | Corn plant response rating (corn; [5]): 0 | Plant response rating, Barnyardgrass (0 to 10 scale, 0 is no effect, 10 is complete control) (bamyardgrass; [6]): 0 | Barnyardgrass plant response rating (0 to 10 scale, 0 is no effect, 10 is complete control) (bamyardgrass; [7]): 0 | Barnyardgrass plant response rating (bamyardgrass; [8]): 0 | Barnyardgrass plant response rating (bamyardgrass; [9]): 0
